Columns and labels:
Human CARM1 (PRMT4) = target: T1, Human CARM1 (PRMT4) (Homo sapiens, UniProt Q86X55); experiment: CARM1 enzyme assay on peptide substrates (3H-SAM Flashplate); conditions: Biochemical assay; CARM1 0.25 nM, 3H-SAM 30 nM, peptide 250 nM; read-out: Biochem IC50
T1 construct: Flag-CARM1-His was eluted with 200 ug/ml FLAG peptide in buffer A; made in house; host or cells: HEK 293F cells infected with recombinant baculovirus (pFastBacMam)
T1 sequence (Q86X55 1-585 isoform Q86X55-1): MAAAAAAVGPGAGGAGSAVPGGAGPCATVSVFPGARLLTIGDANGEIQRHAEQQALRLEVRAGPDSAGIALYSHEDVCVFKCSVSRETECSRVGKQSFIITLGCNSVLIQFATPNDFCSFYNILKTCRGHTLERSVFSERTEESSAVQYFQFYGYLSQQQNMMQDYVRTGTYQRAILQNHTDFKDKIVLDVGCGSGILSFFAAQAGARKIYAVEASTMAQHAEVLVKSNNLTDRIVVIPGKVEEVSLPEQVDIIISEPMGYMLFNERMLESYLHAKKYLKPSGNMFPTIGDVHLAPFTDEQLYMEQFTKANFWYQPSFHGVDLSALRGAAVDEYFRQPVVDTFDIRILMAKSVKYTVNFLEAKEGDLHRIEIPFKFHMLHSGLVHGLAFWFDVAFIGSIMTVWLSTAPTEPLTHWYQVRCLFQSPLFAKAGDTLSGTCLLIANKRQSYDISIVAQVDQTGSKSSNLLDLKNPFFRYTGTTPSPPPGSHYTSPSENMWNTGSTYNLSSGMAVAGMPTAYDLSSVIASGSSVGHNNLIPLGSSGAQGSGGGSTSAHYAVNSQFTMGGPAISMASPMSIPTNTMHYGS

[1] = test system: asymmetric di-methyl PABP1 in RKO cells; experiment: RKO methylation assay: In Cell Western (ICW) for asymmetric di-methyl PABP1 (PABP1me2a); conditions: Homo sapiens, RKO, 48 h, Cellular-based (PABP1me2a) ICW (In Cell Western) assay
Outline: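 In-cell western on compound-exposed RKO cells (48 hours): asymmetric di-methyl PABP1 detected by antibody at 800 nm, DNA content by DRAQ5 at 700 nm. Percent inhibition from signal ratios against DMSO (minimum) and 20 μM reference compound (maximum) wells; IC50 curves fitted from triplicates.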

Structure (SMILES) | IC50 (Human CARM1 (PRMT4)) [µM] | IC50 [1] [µM]
CCn1ncc(Cl)c1-c1nc(-c2cc(OC[C@H](O)CNC)ccc2Cl)nc(N2Cc3cncnc3C2)c1C [Example 76] | 0.0048 | 0.268
CCn1ncc(Cl)c1-c1nc(-c2cc(OC[C@H](O)CNC)ccc2Cl)nc(N2Cc3cccnc3C2)c1C [Example 77] | 0.0037 | 0.293
CNC[C@@H](O)COc1ccc(Cl)c(-c2nc(-c3c(C)noc3C)c(C)c(N3CC4(C3)CC(F)(F)C4)n2)c1 [Example 78] | 0.0056 | 0.112
CNC[C@@H](O)COc1ccc(Cl)c(-c2nc(-c3c(C)noc3C)c(C)c(N3CC4(CC(OC)C4)C3)n2)c1 [Example 79] | 0.0093 | 0.06
CNC[C@@H](O)COc1ccc(Cl)c(-c2nc(-c3c(C)cnn3C)c(C)c(N3CC4(CCN(C(=O)OC)CC4)C3)n2)c1 [Example 80] | 0.0088 | 0.182
CNC[C@@H](O)COc1ccc(Cl)c(-c2nc(-c3c(C)cnn3C)c(C)c(N3Cc4cncnc4C3)n2)c1 [Example 81] | 0.0038 | 0.112
CNC[C@@H](O)COc1ccc(Cl)c(-c2nc(-c3c(C)cnn3C)c(C)c(N3Cc4cccnc4C3)n2)c1 [Example 82] | 0.0021 | 0.056
CNC[C@@H](O)COc1ccc(Cl)c(-c2nc(-c3c(C)noc3C)c(C)c(N3CC4(CCC(SC)CC4)C3)n2)c1 [Example 83] | 0.0033 | 0.074
CNC[C@@H](O)COc1ccc(Cl)c(-c2nc(-c3c(C)c(Cl)nn3C)c(C)c(N3Cc4cccnc4C3)n2)c1 [Example 84] | 0.0016 | 0.028
CNC[C@@H](O)COc1cccc(-c2nc(-c3c(C)c(Cl)nn3C)c(C)c(N3Cc4cccnc4C3)n2)c1 [Example 85] | 0.0011 | 0.083
CNC[C@@H](O)COc1ccc(Cl)c(-c2nc(C#CC3CCN(C(=O)OC)CC3)c(C)c(-c3c(C)noc3C)n2)c1 [Example 86] | 0.097 | 0.283
CCn1ncc(C)c1-c1nc(-c2cc(OC[C@H](O)CNC)ccc2Cl)nc(N2CC3(CCN(C(=O)OC)CC3)C2)c1C [Example 87] | 0.009 | 0.205
CCn1ncc(C)c1-c1nc(-c2cc(OC[C@H](O)CNC)ccc2Cl)nc(N2Cc3cncnc3C2)c1C [Example 88] | 0.0046 | 0.222
CCn1ncc(C)c1-c1nc(-c2cc(OC[C@H](O)CNC)ccc2Cl)nc(N2Cc3cccnc3C2)c1C [Example 89] | 0.0037 | 0.165
CNC[C@@H](O)COc1ccc(Cl)c(-c2nc(-c3c(C)noc3C)c(C)c(N3Cc4nc(OC)nc(OC)c4C3)n2)c1 [Example 90] | 0.0022 | 0.032
CNC[C@@H](O)COc1ccc(Cl)c(-c2nc(-c3c(C)noc3C)c(C)c(N3CC4(CC(C(=O)N(C)C)C4)C3)n2)c1 [Example 91] | 0.0055 | 0.092
CNC[C@@H](O)COc1ccc(Cl)c(-c2nc(-c3c(C)noc3C)c(C)c(N3CC4(CCC(C#N)CC4)C3)n2)c1 [Example 92] | 0.0052 | 0.064
CNC[C@@H](O)COc1ccc(Cl)c(-c2nc(-c3c(C)noc3C)c(C)c(N3Cc4ncnc(OC)c4C3)n2)c1 [Example 93] | 0.0023 | 0.033
CNC[C@@H](O)COc1ccc(Cl)c(-c2nc(-c3c(C)noc3C)c(C)c(N3Cc4ncnc(OCCOC)c4C3)n2)c1 [Example 94] | 0.0023 | 0.044
CNC[C@@H](O)COc1ccc(Cl)c(-c2nc(/C=C(\OC)C3CCN(C(=O)OC)CC3)c(C)c(-c3c(C)noc3C)n2)c1 [Example 95] | 0.0112 | 0.995
CNC[C@@H](O)COc1ccc(Cl)c(-c2nc(-c3c(C)noc3C)c(C)c(N3CC4(C3)CN(C3CC3)C4)n2)c1 [Example 96] | 0.0021 | 0.054
CNC[C@@H](O)COc1ccc(Cl)c(-c2nc(-c3c(C)noc3C)c(C)c(N3CC4(CCC(S(C)(=O)=O)CC4)C3)n2)c1 [Example 97] | 0.0109 | 0.394
CNC[C@@H](O)COc1ccc(Cl)c(-c2nc(-c3c(C)noc3C)c(C)c(N3CC4(CCN4C(=O)OC)C3)n2)c1 [Example 98] | 0.0084 | 0.099
CNC[C@@H](O)COc1ccc(Cl)c(-c2nc(-c3c(C)noc3C)c(C)c(N3CC4(CN(CC(F)(F)F)C4)C3)n2)c1 [Example 99] | 0.011 | 0.039

Structure (SMILES) | IC50 (Human CARM1 (PRMT4)) [µM] | IC50 [1] [µM]
CNC[C@@H](O)COc1ccc(Cl)c(-c2nc(-c3c(C)noc3C)c(C)c(N3CC4(CCN4CC(F)(F)F)C3)n2)c1 [Example 100] | 0.0113 | 0.068
CCc1cc2c(c(C)n1)CN(c1nc(-c3cc(OC[C@H](O)CNC)ccc3Cl)nc(-c3c(C)noc3C)c1C)C2 [Example 101] | 0.0044 | 0.038
CNC[C@@H](O)COc1ccc(Cl)c(-c2nc(-c3c(C)noc3C)c(C)c(N3Cc4cc(C)nc(C)c4C3)n2)c1 [Example 102] | 0.0045 | 0.027
CNC[C@@H](O)COc1ccc(Cl)c(-c2nc(-c3cnn(C4CC4)c3)c(C)c(-c3c(C)noc3C)n2)c1 [Example 103] | 0.0081 | 0.13
CNC[C@@H](O)COc1ccc(Cl)c(-c2nc(-c3c(C)noc3C)c(C)c(N3C[C@@H]4C[C@H]3CN4C(=O)OC)n2)c1 [Example 104] | 0.0108 | 0.368
CNC[C@@H](O)COc1ccc(Cl)c(-c2nc(-c3c(C)noc3C)c(C)c(N3Cc4cnc(N5CCC5)nc4C3)n2)c1 [Example 105] | 0.0032 | 0.011
CNC[C@@H](O)COc1ccc(Cl)c(-c2nc(-c3c(C)noc3C)c(C)c(N3Cc4cnc(OCCOC)nc4C3)n2)c1 [Example 106] | 0.0055 | 0.025
CNC[C@@H](O)COc1ccc(Cl)c(-c2nc(CCC3CCN(C(=O)OC)CC3)c(C)c(-c3c(C)noc3C)n2)c1 [Example 107] | 0.0112 | 0.176
CNC[C@@H](O)COc1ccc(Cl)c(-c2nc(-c3c(C)noc3C)c(C)c(N3CC4(CCN4CC(F)F)C3)n2)c1 [Example 108] | 0.0183 | 0.164
CNC[C@@H](O)COc1ccc(Cl)c(-c2nc(-c3c(C)noc3C)c(C)c(N3Cc4cnn(CC(=O)N(C)C)c4C3)n2)c1 [Example 109] | 0.0064 | 2.84
CNC[C@@H](O)COc1ccc(Cl)c(-c2nc(-c3c(C)noc3C)c(C)c(N3Cc4cnn(CCOC)c4C3)n2)c1 [Example 110] | 0.0048 | 0.052
CNC[C@@H](O)COc1ccc(Cl)c(-c2nc(-c3c(C)noc3C)c(C)c(N3CC4(CC(S(C)(=O)=O)C4)C3)n2)c1 [Example 111] | 0.0112 | 0.822
CNC[C@@H](O)COc1ccc(Cl)c(-c2nc(-c3c(C)noc3C)c(C)c(N3Cc4cn(CCOC)nc4C3)n2)c1 [Example 112] | 0.0072 | 0.066
CNC[C@@H](O)COc1ccc(Cl)c(-c2nc(-c3c(C)noc3C)c(C)c(N3Cc4cn(CC(=O)N(C)C)nc4C3)n2)c1 [Example 113] | 0.0088 | 1.15
CNC[C@@H](O)COc1ccc(Cl)c(-c2nc(-c3c(C)noc3C)c(C)c(N3Cc4cn(C(CO)CO)nc4C3)n2)c1 [Example 114] | 0.0078 | 5.85
CNC[C@@H](O)COc1ccc(Cl)c(-c2nc(-c3c(C)noc3C)c(C)c(N3Cc4cnn(C(CO)CO)c4C3)n2)c1 [Example 115] | 0.0099 | 9.13
CNC[C@@H](O)COc1ccc(Cl)c(-c2nc(-c3c(C)noc3C)c(C)c(N3CC4(CCN(CC(F)(F)F)C(=O)O4)C3)n2)c1 [Example 116] | 0.0138 | 0.339
CNC[C@@H](O)COc1ccc(Cl)c(-c2nc(-c3c(C)noc3C)c(C)c(N3Cc4cnc(SC)nc4C3)n2)c1 [Example 117] | 0.0039 | 0.031
CNC[C@@H](O)COc1ccc(Cl)c(-c2nc(-c3cnn(CC(F)(F)F)c3)c(C)c(-c3c(C)noc3C)n2)c1 [Example 118] | 0.009 | 0.428
CNC[C@@H](O)COc1ccc(Cl)c(-c2nc(-c3cnn(CC(F)F)c3)c(C)c(-c3c(C)noc3C)n2)c1 [Example 119] | 0.0076 | 0.34
CNC[C@@H](O)COc1ccc(Cl)c(-c2nc(-c3c(C)noc3C)c(C)c(N3C[C@@H]4C[C@H]3CN4CC(F)(F)F)n2)c1 [Example 120] | 0.0088 | 0.389
CNC[C@@H](O)COc1ccc(Cl)c(-c2nc(CCC3CN(C(=O)OC)C3)c(C)c(-c3c(C)noc3C)n2)c1 [Example 121] | 0.0134 | 0.257
CNC[C@@H](O)COc1ccc(Cl)c(-c2nc(-c3c(C)noc3C)c(C)c(-n3ncc4c3CN(C(=O)OC)C4)n2)c1 [Example 122] | 0.0137 | 1.81
CNC[C@@H](O)COc1ccc(Cl)c(-c2nc(-c3c(C)noc3C)c(C)c(N3Cc4cccnc4C3C)n2)c1 (stereo partly drawn) [Example 123] | 0.0034 | 0.163
